Source: patent US6362166B1, “Antipicornaviral compounds and methods for their use and preparation” (Agouron Pharmaceuticals, Inc., priority 1996, dated 2002)
Read-outs that look alike come from different tables or passages of the source.

How the values were obtained:
[1] = system: HRV-14; test: Antirhinoviral HI-HeLa Cell Culture Assay (Cell Protection Assay, XTT dye reduction); type: cell-based, human rhinovirus (HRV) serotype-14; conditions: HI-HeLa cells infected with HRV-14, m.o.i. 0.13; two days; XTT; read-out: EC50
Description: In the Cell Protection Assay, the ability of compounds to protect cells against HRV infection was measured by the XTT dye reduction method. This method is described in Weislow, O. S., R. Kiser, D. L. Fine, J. Bader, R. H. Shoemaker, and M. R. Boyd, J. Natl. Cancer Inst. 1989, 81, 577-586, which is incorporated herein by reference.
(§1) HI-HeLa cells were infected with HRV-14 at a multiplicity of infection (m.o.i.) of 0.13 (virus particles/cell) or mock-infected with medium only. Infected or mock-infected cells were resuspended at 8×10^5 cells per mL and incubated with appropriate concentration of compounds of formulas I and II. Two days later, XTT/PMS was added to test plates and the amount of formazan produced was quantified spectrophotometrically at 450/650 nm. […] The therapeutic index (TI) was calculated by dividing the CC50 by the EC50.
(§2) All strains of human rhinovirus (HRV) for use in this assay were purchased from American Type Culture Collection (ATCC), except for HRV serotype-14, which was produced from the infectious cDNA clone, constructed and supplied to us by Dr. Roland Rueckert at the Institue for Molecular Virology, University of Wisconsin, Madison, Wisc. HRV stocks were propagated, and antiviral assays were perforemd in HI-HeLa cells (ATCC). Cells were grwon in Minimal Essential Medium, available from Life Technologies, with 10% fetal bovine serum.
The compounds were tested against control compounds WIN 51711, WIN 52084, and WIN 54954, all obtained from Sterling-Winthrop Pharmaceuticals, and control compound Pirodavir, obtained from Janssen Pharmaceuticals.

[2] = molecular target: T1, Recombinant Rhinovirus 3C protease (RVP) serotype-14 (Human rhinovirus 14, UniProt P03303); test: Inhibition of Rhinovirus Protease (fluorescence resonance energy transfer assay), serotype 14; type: biochemical, human rhinovirus (HRV); conditions: for kobs/I: progress curves in enzyme start experiments
T1 construct: Recombinant Rhinovirus 3C proteases from serotypes 14, 16, 2 or 89; made in house
Description: Stock solution (50 mM, in DMSO) of various compounds were prepared; dilutions were in the same solvent. […] Assays contained 2% DMSO, 50 mM tris pH 7.6, 1 mM EDTA, a compound at the indicated concentrations, approximately 1 μM substrate, and 50-100 nM protease. […] The kobs/I values were obtained from reactions initiated by addition of enzyme rather than substrate. RVP activity is measured in the fluorescence resonance energy transfer assay. […] In the uncleaved peptide, the EDANS fluorescence was quenched by the proximal DABCYL moeity. When the peptide was cleaved, the quenching was relieved, and activity was measured as an increase in fluorescence signal.
In the above table, all data is RVP serotype-14 unless otherwise noted in parentheses. All strains of human rhinovirus (HRV) were purchased from American Type Culture Collection (ATCC), except for serotype 14, which was produced from the infectious cDNA clone constructed and supplied to us by Dr. Roland Rueckert at the Institute for Molecular Virology, University of Wisconsin, Madison, Wisc. […] The data in the column designated kobs/I was measured from progress curves in enzyme start experiments.

[3] = system: HI-HeLa cells; test: Cytotoxicity in mock-infected HI-HeLa cells (antirhinoviral assay, XTT); type: cell-based
Description: as §1, §2

[4] = mock-infected HI-HeLa cells, two days, XTT, read-out: CC50

T1 sequence (P03303 1538-1719): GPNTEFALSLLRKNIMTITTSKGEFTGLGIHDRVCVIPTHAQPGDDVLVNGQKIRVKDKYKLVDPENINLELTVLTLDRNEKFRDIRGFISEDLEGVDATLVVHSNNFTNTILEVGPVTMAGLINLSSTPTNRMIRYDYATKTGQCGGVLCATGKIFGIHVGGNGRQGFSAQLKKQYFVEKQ

| SMILES | EC50 [1] | kobs/I ([2]; RVP serotype-14) | CC50 [3] | other results |
| --- | --- | --- | --- | --- |
| CCOC(=O)/C=C/[C@H](CCC(N)=O)NC(=O)[C@H](Cc1ccccc1)NC(=O)[C@H](CC(C)C)NC(=O)SC1CCCC1 [Compound 182] | 0.18 µM | 114,360 M-1 sec-1 | > 100 µM | – |
| CC(C)C[C@H](NC(=O)OCc1ccccc1)C(=O)N[C@@H](Cc1ccccc1)C(=O)N[C@H](/C=C/[N+](=O)[O-])CCC(N)=O [Compound 125] | > 100 µM | >500,000 M-1 sec-1 | 100 µM | – |
| CC(C)C[C@H](NC(=O)OCc1ccccc1)C(=O)N[C@@H](Cc1ccccc1)C(=O)N[C@H](/C=C/C(=O)N1CCc2ccc(S(C)(=O)=O)cc21)CCC(N)=O [Compound 97] | > 320 µM | 12,900 M-1 sec-1 | – | CC50 [3, 4]: > 320 µM |
| CC(C)C[C@H](NC(=O)OCc1ccccc1)C(=O)N[C@@H](Cc1ccccc1)C(=O)NC(/C=C/C#N)CCC(N)=O (mixture of isomers) [Compound 14, 3-(CBZ-L-Leu-L-Phe-DL-Gln)-E-Propenonitrile] | 17.8 µM | – | 500 µM | – |
| CC(C)C[C@H](NC(=O)OCc1ccccc1)C(=O)N[C@@H](Cc1ccccc1)C(=O)N[C@H](/C=C/CSc1ccccn1)CCC(N)=O [Compound 75] | 5 µM | – | > 100 µM | – |
| Cc1cc(CCCCCCCOc2ccc(C3=NCCO3)cc2)on1 [WIN 51711, reference compound] | 0.78 µM | – | – | CC50 [3, 4]: > 60 µM |
| Cc1ccc(CC(NC(=O)C(NC(=O)SC2CCCC2)C(C)(C)C)C(=O)NC(C=CC(=O)OCc2ccccc2)CCC(N)=O)cc1 (stereo not drawn) [Compound 186] | – | 950,000 M-1 sec-1 | – | – |
| CCOC(=O)/C(F)=C\[C@H](CCC#N)NC(=O)[C@H](Cc1ccccc1)NC(=O)[C@H](CC(C)C)NC(=O)OCc1ccccc1 [Compound 1, Ethyl-2-Fluoro-3-[CBZ-L-Leu-L-Phe-L-(Cyanomethyl)-Ala]-E-Propenoate] | – | – | – | INHIB (percent inhibition) ([2]; RVP serotype-14, 10 minute preincubation with 50 nM RVP): 77 (50) percent |
| C/C(=C\[C@H](CCC(N)=O)NC(=O)[C@H](Cc1ccccc1)NC(=O)[C@H](CC(C)C)NC(=O)OCc1ccccc1)C(=O)O [Compound 144] | 104 µM | – | > 320 µM | – |
| CCOC(=O)/C=C/[C@H](CCC(N)=O)NC(=O)[C@H](Cc1ccc(C)cc1)NC(=O)[C@@H](NC(=O)OC1CCCC1)C(C)(C)C [Compound 190] | – | 29,230 M-1 sec-1 | – | – |
| CC(=O)N1CC/C(=C\[C@H](CCC(N)=O)NC(=O)[C@H](Cc2ccc(F)cc2)NC(=O)[C@@H](NC(=O)SC2CCCC2)C(C)(C)C)C1=O [Compound 189] | – | 386,000 M-1 sec-1 | – | – |
| COCCOC(=O)/C=C/[C@H](CCC(N)=O)NC(=O)[C@H](Cc1ccc(C)cc1)NC(=O)[C@@H](NC(=O)SC1CCCC1)C(C)(C)C [Compound 188] | – | – | – | Ki [2]: 0.16 µM; kinact/KI ([2]; pH 7.6, read-out: kobs/I): 580000 M⁻¹ s⁻¹ |
| Cc1cc(CCCCCCCOc2ccc(C3=N[C@@H](C)CO3)cc2)on1 [WIN 52084, reference compound] | 0.07 µM | – | – | CC50 [3, 4]: > 10 µM |
| CCOP(=O)(/C=C/[C@H](CCC(N)=O)NC(=O)[C@H](Cc1ccccc1)NC(=O)[C@H](CC(C)C)NC(=O)OCc1ccccc1)OCC [Compound 20, Diethyl-[2-(CBZ-L-Leu-L-Phe-L-Gln)-E-Vinyl] Phosphonate] | > 320 µM | – | – | CC50 [3, 4]: > 320 µM |
